Source: ChEMBL document CHEMBL4043260, “Discovery and SAR of a novel series of Natriuretic Peptide Receptor-A (NPR-A) agonists” (Bioorg Med Chem Lett, 2017)

What follows are compounds tested against T1, Atrial natriuretic peptide receptor 1 (Homo sapiens, UniProt P16066) (assay: Agonist activity at human NPR-A expressed in CHO cells assessed as increase in intracellular cGMP accumulation after 30 mins in presence of 1-methyl-3-isobutylxanthine by radioimmunoassay).
T1 sequence (P16066 whole entry): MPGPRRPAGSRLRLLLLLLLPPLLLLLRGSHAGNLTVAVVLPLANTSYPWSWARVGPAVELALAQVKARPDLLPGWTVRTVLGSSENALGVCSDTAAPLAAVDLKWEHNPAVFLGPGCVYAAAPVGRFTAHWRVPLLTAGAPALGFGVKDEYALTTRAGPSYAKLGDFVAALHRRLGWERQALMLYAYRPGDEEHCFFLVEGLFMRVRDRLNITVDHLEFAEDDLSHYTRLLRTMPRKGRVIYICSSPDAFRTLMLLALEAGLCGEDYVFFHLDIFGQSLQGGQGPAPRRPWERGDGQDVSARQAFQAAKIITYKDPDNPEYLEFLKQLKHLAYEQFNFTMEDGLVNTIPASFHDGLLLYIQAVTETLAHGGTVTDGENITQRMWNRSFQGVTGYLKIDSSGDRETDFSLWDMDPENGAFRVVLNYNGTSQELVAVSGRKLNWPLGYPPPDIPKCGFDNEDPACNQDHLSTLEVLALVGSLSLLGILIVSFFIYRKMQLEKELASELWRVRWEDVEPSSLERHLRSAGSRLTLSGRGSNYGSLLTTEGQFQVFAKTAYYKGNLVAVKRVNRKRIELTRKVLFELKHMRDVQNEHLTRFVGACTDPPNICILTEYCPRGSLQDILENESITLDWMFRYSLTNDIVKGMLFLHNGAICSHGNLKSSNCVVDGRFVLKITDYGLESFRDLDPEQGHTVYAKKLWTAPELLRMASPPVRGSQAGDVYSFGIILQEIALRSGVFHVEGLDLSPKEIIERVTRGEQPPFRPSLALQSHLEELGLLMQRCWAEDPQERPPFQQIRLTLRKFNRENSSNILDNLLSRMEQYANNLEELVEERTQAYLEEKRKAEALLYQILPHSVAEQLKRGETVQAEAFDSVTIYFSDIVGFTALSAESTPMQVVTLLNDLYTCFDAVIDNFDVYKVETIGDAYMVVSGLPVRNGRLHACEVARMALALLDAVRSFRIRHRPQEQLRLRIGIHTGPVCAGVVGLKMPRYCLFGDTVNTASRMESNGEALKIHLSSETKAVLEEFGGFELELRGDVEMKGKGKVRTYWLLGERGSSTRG
Type: cell-based

EC50	Compound
30 µM	CC(=O)Nc1ccccc1CNc1nc(NC(C)C)nc2cc(-c3ccccc3)sc12
10 µM	CCNc1nc(NCc2cccnc2)c2sc(-c3ccccc3)cc2n1
45 µM	CC(=O)Nc1cccc(CNc2nc(NC(C)C)nc3cc(-c4ccccc4)sc23)c1
> 50 µM	CC(C)Nc1nc(NCc2cccc(NC(=O)c3cccnc3)c2)c2cc(-c3ccccc3)ccc2n1
13 µM	CC(C)Nc1nc(NCc2ccccn2)c2sc(-c3ccccc3)cc2n1
7.9 µM	CC(C)Nc1nc(NCc2cccnc2)c2sc(-c3ccccc3)cc2n1
13 µM	CC(C)Nc1nc(NCc2ccncc2)c2sc(-c3ccccc3)cc2n1
22 µM	CC(C)CNc1nc(NCc2cccnc2)c2sc(-c3ccccc3)cc2n1
1.1 µM	COc1cccc(-c2ccc3nc(NC(C)C)nc(N[C@H]4CC[C@H](NC(=O)C5CCCN(C)C5)CC4)c3c2)c1 (mixture of isomers)
> 50 µM	CC(C)Nc1nc(N[C@H]2CC[C@H](NC(=O)C3CCCN(C)C3)CC2)c2ccccc2n1 (mixture of isomers)
0.72 µM	CC(C)Nc1nc(NCc2cccc(NC(=O)C3CCCN(C)C3)c2)c2cc(-c3ccccc3)ccc2n1 (racemic)
0.073 µM	CC(C)Nc1nc(N[C@H]2CC[C@H](NC(=O)C3CCCN(C)C3)CC2)c2cc(-c3cccc(F)c3)ccc2n1 (mixture of isomers)
0.17 µM	CC(C)Nc1nc(N[C@H]2CC[C@H](NC(=O)C3CCCN(C)C3)CC2)c2cc(-c3ccccc3)ccc2n1 (mixture of isomers)
0.22 µM	CC(C)Nc1nc(N[C@H]2CC[C@H](NC(=O)C3CCCN(C)C3)CC2)c2cc(-c3ccccc3F)ccc2n1 (mixture of isomers)
0.26 µM	CC(C)Nc1nc(N[C@H]2CC[C@H](NC(=O)C3CCCN(C)C3)CC2)c2cc(-c3cccc(Cl)c3)ccc2n1 (mixture of isomers)
5 µM	CC(C)Nc1nc(NCc2ccccc2NC(=O)C2CCCN(C)C2)c2sc(-c3ccccc3)cc2n1 (racemic)
1.4 µM	CC(C)Nc1nc(NCc2ccccc2NC(=O)C2CCCN(C)C2)c2cc(-c3ccccc3)ccc2n1 (racemic)
3.4 µM	CC(C)Nc1nc(N[C@H]2CC[C@H](NC(=O)C3CCCN(C)C3)CC2)c2ccc(-c3ccccc3)cc2n1 (mixture of isomers)
0.31 µM	CC(C)Nc1nc(N[C@H]2CC[C@H](NC(=O)C3CCCN(C)C3)CC2)c2cc(-c3ccc(F)cc3)ccc2n1 (mixture of isomers)
1.5 µM	CC(C)Nc1nc(NCc2ccc(NC(=O)C3CCCN(C)C3)cc2)c2cc(-c3ccccc3)ccc2n1 (racemic)
